Measured values taken from PubChem BioAssay AID2060606 (Molecular Pharmacology Branch, DTP, NCI, 2025).
Where “and” joins values, the source holds several entries; their conditions need not be identical. Equal entries are not always repeated.

System: 922993-354-T-J3-PDC complex spheroids, viability, % test/control
Assay: Anticancer human tumor 922993-354-T-J3-PDC patient-derived endometrial carcinoma cell line growth inhibition [CLK]
Settings: for viability, T/C: stronger effect = lower value
Procedure, shortened: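 Patient-derived tumor cells grown as complex spheroids with HUVEC endothelial cells and mesenchymal stem cells, treated with drug combinations. Concentrations descend in half-log steps from near clinical Cmax, or from 10 microM if Cmax unknown.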

[1] = curve of first compound, second compound 0.0316 µM
[2] = curve of first compound, second compound 0.1 µM
[3] = curve of first compound, second compound 0.316 µM
[4] = curve of first compound, second compound 1 µM
[5] = curve of first compound, second compound 3.16 µM
[6] = curve of first compound, second compound 10 µM
[7] = second compound 0.0316 µM, first compound 0.0316 µM
[8] = second compound 0.0316 µM, first compound 0.1 µM
[9] = second compound 0.0316 µM, first compound 0.316 µM
[10] = second compound 0.0316 µM, first compound 1 µM
[11] = second compound 0.1 µM, first compound 0.0316 µM
[12] = second compound 0.1 µM, first compound 0.1 µM
[13] = second compound 0.1 µM, first compound 0.316 µM
[14] = second compound 0.1 µM, first compound 1 µM
[15] = second compound 0.316 µM, first compound 0.0316 µM
[16] = second compound 0.316 µM, first compound 0.1 µM
[17] = second compound 0.316 µM, first compound 0.316 µM
[18] = second compound 0.316 µM, first compound 1 µM
[19] = second compound 1 µM, first compound 0.0316 µM
[20] = second compound 1 µM, first compound 0.1 µM
[21] = second compound 1 µM, first compound 0.316 µM
[22] = second compound 1 µM, first compound 1 µM
[23] = second compound 3.16 µM, first compound 0.0316 µM
[24] = second compound 3.16 µM, first compound 0.1 µM
[25] = second compound 3.16 µM, first compound 0.316 µM
[26] = second compound 3.16 µM, first compound 1 µM
[27] = second compound 10 µM, first compound 0.0316 µM
[28] = second compound 10 µM, first compound 0.1 µM
[29] = second compound 10 µM, first compound 0.316 µM
[30] = second compound 10 µM, first compound 1 µM
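Also: spheroids exposed to the agents for 7 days before readout.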

Structure (SMILES): CC(=O)O[C@H]1C(=O)[C@@]2(C)[C@H]([C@H](OC(=O)c3ccccc3)[C@]3(O)C[C@H](OC(=O)[C@H](O)[C@@H](NC(=O)c4ccccc4)c4ccccc4)C(C)=C1C3(C)C)[C@]1(OC(C)=O)CO[C@@H]1C[C@@H]2O + CNC(=O)c1ccc(Nc2nc(OC3CCCC3)c3c(-c4ccc5nc(C)oc5c4)c[nH]c3n2)c(OC)c1
- IC50 [1]: > 10000 nM
- IC50 [2]: > 10000 nM
- IC50 [3]: > 10000 nM
- IC50 [4]: < 31.6 nM
- IC50 [5]: < 31.6 nM
- IC50 [6]: < 31.6 nM
- viability, T/C [7]: 113%
- viability, T/C [8]: 104%
- viability, T/C [9]: 99.3%
- viability, T/C [10]: 99.2%
- viability, T/C (second compound 0.0316 µM, first compound 3.16 µM): 69.3%
- viability, T/C (second compound 0.0316 µM, first compound 10 µM): 51%
- viability, T/C [11]: 101%
- viability, T/C [12]: 92.1%
- viability, T/C [13]: 104%
- viability, T/C [14]: 77.1%
- viability, T/C (second compound 0.1 µM, first compound 3.16 µM): 61.2%
- viability, T/C (second compound 0.1 µM, first compound 10 µM): 51.8%
- viability, T/C [15]: 60.2%
- viability, T/C [16]: 59%
- viability, T/C [17]: 66.8%
- viability, T/C [18]: 73.2%
- viability, T/C (second compound 0.316 µM, first compound 3.16 µM): 79.7%
- viability, T/C (second compound 0.316 µM, first compound 10 µM): 68.1%
- viability, T/C [19]: 42.6%
- viability, T/C [20]: 46%
- viability, T/C [21]: 44.7%
- viability, T/C [22]: 45.9%
- viability, T/C (second compound 1 µM, first compound 3.16 µM): 51.1%
- viability, T/C (second compound 1 µM, first compound 10 µM): 47.1%
- viability, T/C [23]: 34.6%
- viability, T/C [24]: 41.4%
- viability, T/C [25]: 35.8%
- viability, T/C [26]: 44.3%
- viability, T/C (second compound 3.16 µM, first compound 3.16 µM): 42.6%
- viability, T/C (second compound 3.16 µM, first compound 10 µM): 39.9%
- viability, T/C [27]: 35.4%
- viability, T/C [28]: 39.2%
- viability, T/C [29]: 40.2%
- viability, T/C [30]: 37.4%
- viability, T/C (second compound 10 µM, first compound 3.16 µM): 44.9%
- viability, T/C (second compound 10 µM, first compound 10 µM): 36.1%

Structure (SMILES): CC(Nc1ccc2c(c1)OCCn1cc(N3C(=O)OCC3C(F)F)nc1-2)C(N)=O (stereo not drawn)
- viability, T/C (compound 0.0316 µM): 115% and 99.3%
- viability, T/C (compound 0.1 µM): 107% and 93.8%
- viability, T/C (compound 0.316 µM): 84.6% and 77.5%
- viability, T/C (compound 1 µM): 73.1% and 70.7%
- viability, T/C (compound 3.16 µM): 28.4% and 49%
- viability, T/C (compound 10 µM): 22.1% and 34.3%
- IC50 (curve of compound): 1790 nM and 3330 nM

Structure (SMILES): C=CC(=O)Nc1cc(Nc2nccc(-c3cn(C)c4ccccc34)n2)c(OC)cc1N(C)CCN(C)C
- viability, T/C (compound 0.000949 µM): 93.6% and 122%
- viability, T/C (compound 0.003 µM): 92.5% and 98.6%
- viability, T/C (compound 0.00949 µM): 60.9% and 98.1%
- viability, T/C (compound 0.03 µM): 97.8% and 85.3%
- viability, T/C (compound 0.0949 µM): 90.1% and 94.2%
- viability, T/C (compound 0.3 µM): 72.3% and 86.4%
- IC50 (curve of compound): > 300 nM

Structure (SMILES): COc1c(OCCCN2CCOCC2)ccc2c3n(c(=NC(=O)c4cnc(N)nc4)nc12)CCN3 + CN1CCN(c2cc(C(=O)Nc3cc4cc(-c5cnn(C)c5)ccc4cn3)ccn2)CC1
- IC50 [1]: 148 nM
- IC50 [2]: 151 nM
- IC50 [3]: < 3.16 nM
- IC50 [4]: < 3.16 nM
- IC50 [5]: < 3.16 nM
- IC50 [6]: < 3.16 nM
- viability, T/C (second compound 0.0316 µM, first compound 0.00316 µM): 112%
- viability, T/C (second compound 0.0316 µM, first compound 0.01 µM): 116%
- viability, T/C [7]: 86.5%
- viability, T/C [8]: 59.7%
- viability, T/C [9]: 32.2%
- viability, T/C [10]: 9.62%
- viability, T/C (second compound 0.1 µM, first compound 0.00316 µM): 91.7%
- viability, T/C (second compound 0.1 µM, first compound 0.01 µM): 99.9%
- viability, T/C [11]: 89.9%
- viability, T/C [12]: 58.1%
- viability, T/C [13]: 32.4%
- viability, T/C [14]: 12.1%
- viability, T/C (second compound 0.316 µM, first compound 0.00316 µM): 48.1%
- viability, T/C (second compound 0.316 µM, first compound 0.01 µM): 47.9%
- viability, T/C [15]: 39.8%
- viability, T/C [16]: 18.8%
- viability, T/C [17]: 6.2%
- viability, T/C [18]: 2.87%
- viability, T/C (second compound 1 µM, first compound 0.00316 µM): 0.13%
- viability, T/C (second compound 1 µM, first compound 0.01 µM): 1.13%
- viability, T/C [19]: 0.12%
- viability, T/C [20]: 0.08%
- viability, T/C [21]: 1.11%
- viability, T/C [22]: 0.77%
- viability, T/C (second compound 3.16 µM, first compound 0.00316 µM): 0.42%
- viability, T/C (second compound 3.16 µM, first compound 0.01 µM): 0.12%
- viability, T/C [23]: 0.38%
- viability, T/C [24]: 0.15%
- viability, T/C [25]: 1.16%
- viability, T/C [26]: 1.38%
- viability, T/C (second compound 10 µM, first compound 0.00316 µM): 0.08%
- viability, T/C (second compound 10 µM, first compound 0.01 µM): 0.15%
- viability, T/C [27]: 1.41%
- viability, T/C [28]: 0.15%
- viability, T/C [29]: 3.12%
- viability, T/C [30]: 2.42%
